Values joined by “and” are separate entries in the source; they are usually repeats but may differ in a detail not shown here. Equal entries are not always repeated. Where two headings read alike, the source gives them in different places. Marks after values point to notes of the source that are not given here.
Tests used:
[1] = system: IFNγ-induced NO production in RAW 264.7 cells; experiment: Nitric oxide suppression assay (IFNγ-induced NO production, Griess nitrite readout); assay type: cell-based, mouse; conditions: for IC50: 2 h pretreatment, 20 ng/mL interferon gamma 24 h, average of trials per footnote, read-out: NO IC50
[2] = system: AREc32 reporter cell line (luciferase reporter under eight copies of the rat GSTA2 ARE sequence); experiment: AREc32 luciferase reporter activation; assay type: cell-based, human; conditions: for EC (2-fold): Homo sapiens, Arec32, concentration that increases the luminescence signal 2-fold above vehicle, 19 h treatment, read-out: AREc32 EC2X (Mean ± SD)
[3] = Mus musculus, RAW264.7, RAW 264.7 cells

Row | Structure (SMILES) | NO IC50 Rel. to RTA 402 [1] | IC50 [1, 3] [nM] | AREc32 EC2X Relative to RTA 402 (Mean ± SD) [2] | EC (2-fold) [2] [µM] | IC50 ([1]; RAW 264.7 cells) [nM] | times more active (NO IC50) than 63170 relative to RTA 402 [1] | times more active (NO IC50) than 63172 relative to RTA 402 [1]
1 | CC1(C)CC[C@]2(CNC(=O)OC(C)(C)C)CC[C@]3(C)[C@H](C(=O)C=C4[C@@]5(C)C=C(C#N)C(=O)C(C)(C)[C@@H]5CC[C@]43C)[C@@H]2C1 [CC1, reference compound] | 2.06 ± 0.56^e fold | 5.04 ± 2.62 | 2.1 ± 0.00^a fold | 0.0211 ± 0.00475 | – | – | –
2 | CC1(C)CC[C@]2(CN)CC[C@]3(C)[C@H](C(=O)C=C4[C@@]5(C)C=C(C#N)C(=O)C(C)(C)[C@@H]5CC[C@]43C)[C@@H]2C1 [CC2, reference compound] | 1.55 fold and 1.55 ± 0.30^e fold | 3.15 | 1.6 ± 0.17^g fold | 0.0161 ± 0.00081 | – | – | –
3 | CC1(C)CC[C@]2(N)CC[C@]3(C)[C@H](C(=O)C=C4[C@@]5(C)C=C(C#N)C(=O)C(C)(C)[C@@H]5CC[C@]43C)[C@@H]2C1 [CC4, reference compound] | 2.41 fold and 2.41 ± 0.49^b fold | 3.75 | – | – | – | – | –
4 | CC(=O)N[C@]12CCC(C)(C)C[C@H]1[C@H]1C(=O)C=C3[C@@]4(C)C=C(C#N)C(=O)C(C)(C)[C@@H]4CC[C@@]3(C)[C@]1(C)CC2 [Compound 63170, reference compound] | 4.95 fold | 8.45 | – | – | – | – | –
5 | CNC(=O)N[C@]12CCC(C)(C)C[C@H]1[C@H]1C(=O)C=C3[C@@]4(C)C=C(C#N)C(=O)C(C)(C)[C@@H]4CC[C@@]3(C)[C@]1(C)CC2 [Compound 63172, reference compound] | 7.73 fold | 21.6 | – | – | – | – | –
6 | C=CC(=O)N[C@]12CCC(C)(C)C[C@H]1[C@H]1C(=O)C=C3[C@@]4(C)C=C(C#N)C(=O)C(C)(C)[C@@H]4CC[C@@]3(C)[C@]1(C)CC2 [Compound 63183, reference compound] | 1.35 fold | 4 | – | – | 2.39 | – | –
7 | CCC(=O)N[C@]12CCC(C)(C)C[C@H]1[C@H]1C(=O)C=C3[C@@]4(C)C=C(C#N)C(=O)C(C)(C)[C@@H]4CC[C@@]3(C)[C@]1(C)CC2 [Compound 63189, reference compound] | 4.06 fold | 7.2 | – | – | – | – | –
8 | CC1(C)CC[C@]2(c3nn[nH]n3)CC[C@]3(C)[C@H](C(=O)C=C4[C@@]5(C)C=C(C#N)C(=O)C(C)(C)[C@@H]5CC[C@]43C)[C@@H]2C1 [Compound 63229, reference compound] | >75.85 fold | > 200 | – | – | – | – | –
9 | CC1(C)CC[C@]2(NC(=O)C3CC3)CC[C@]3(C)[C@H](C(=O)C=C4[C@@]5(C)C=C(C#N)C(=O)C(C)(C)[C@@H]5CC[C@]43C)[C@@H]2C1 [Compound 63236, reference compound] | 57.25 fold | – | – | – | 143 | – | –
10 | C[C@@H]1C(=O)C(C#N)=C[C@]2(C)C3=CC(=O)[C@@H]4[C@@H]5CC(C)(C)CC[C@]5(NC(=O)C5CC5)CC[C@@]4(C)[C@]3(C)CC[C@@H]12 [Compound 63866, reference compound] | 1.16 fold | 1.43 | – | – | – | – | –
11 | CC(=O)NC[C@]12CCC(C)(C)C[C@H]1[C@H]1C(=O)C=C3[C@@]4(C)C=C(C#N)C(=O)C(C)(C)[C@@H]4CC[C@@]3(C)[C@]1(C)CC2 [Compound T3] | 0.17 fold and 0.17 ± 0.04^e fold | 0.44 | 0.2 ± 0.08^a fold | 0.0024 ± 0.00044 | – | more than 29 times | –
12 | CN(C[C@]12CCC(C)(C)C[C@H]1[C@H]1C(=O)C=C3[C@@]4(C)C=C(C#N)C(=O)C(C)(C)[C@@H]4CC[C@@]3(C)[C@]1(C)CC2)C(=O)OC(C)(C)C [Compound T5] | 6.04 ± 2.02^d fold | 14.2 ± 6.51 | 3.9 ± 0.36^a fold | 0.0425 ± 0.00947 | – | – | –
13 | CNC[C@]12CCC(C)(C)C[C@H]1[C@H]1C(=O)C=C3[C@@]4(C)C=C(C#N)C(=O)C(C)(C)[C@@H]4CC[C@@]3(C)[C@]1(C)CC2 [Compound T6] | 1.60 ± 0.23^e fold | 3.35 ± 1.62 | 1.2 ± 0.35^a fold | 0.0169 ± 3e-05 | – | – | –
14 | CC(=O)N(C)C[C@]12CCC(C)(C)C[C@H]1[C@H]1C(=O)C=C3[C@@]4(C)C=C(C#N)C(=O)C(C)(C)[C@@H]4CC[C@@]3(C)[C@]1(C)CC2 [Compound T7] | 0.49 ± 0.14^e fold | 0.84 ± 0.37 | 0.5 ± 0.14^a fold | 0.0068 ± 3e-05 | – | – | –
15 | CNC(=O)NC[C@]12CCC(C)(C)C[C@H]1[C@H]1C(=O)C=C3[C@@]4(C)C=C(C#N)C(=O)C(C)(C)[C@@H]4CC[C@@]3(C)[C@]1(C)CC2 [Compound T8] | 0.21 fold and 0.21 ± 0.05^d fold | 0.46 | 0.2 ± 0.06^a fold | 0.0028 ± 4e-05 | – | – | roughly 37 times
16 | CNC(=O)N(C)C[C@]12CCC(C)(C)C[C@H]1[C@H]1C(=O)C=C3[C@@]4(C)C=C(C#N)C(=O)C(C)(C)[C@@H]4CC[C@@]3(C)[C@]1(C)CC2 [Compound T9] | 0.38 ± 0.15^e fold | 0.7 ± 0.18 | 0.5 ± 0.20^a fold | 0.0072 ± 0.00077 | – | – | –
17 | CC1(C)CC[C@]2(CNCCO)CC[C@]3(C)[C@H](C(=O)C=C4[C@@]5(C)C=C(C#N)C(=O)C(C)(C)[C@@H]5CC[C@]43C)[C@@H]2C1 [Compound T12] | 4.07 ± 1.08^e fold | 7.47 ± 0.85 | 1.7^e fold | 0.0218 | – | – | –
18 | CC1(C)CC[C@]2(CN3CCOC3=O)CC[C@]3(C)[C@H](C(=O)C=C4[C@@]5(C)C=C(C#N)C(=O)C(C)(C)[C@@H]5CC[C@]43C)[C@@H]2C1 [Compound T13] | 0.65 ± 0.21^e fold | 1.74 ± 0.55 | 0.5^e fold | 0.00512 | – | – | –
19 | CC1(C)CC[C@]2(N3CCNC3=O)CC[C@]3(C)[C@H](C(=O)C=C4[C@@]5(C)C=C(C#N)C(=O)C(C)(C)[C@@H]5CC[C@]43C)[C@@H]2C1 [Compound T30] | 3.68 ± 0.33^d fold | 15 ± 2.92 | – | – | – | – | –
20 | CC1(C)CC[C@]2(n3cc[nH]c3=O)CC[C@]3(C)[C@H](C(=O)C=C4[C@@]5(C)C=C(C#N)C(=O)C(C)(C)[C@@H]5CC[C@]43C)[C@@H]2C1 [Compound T45] | 4.02 ± 0.61^d fold | 16.4 ± 2.94 | – | – | – | – | –
21 | CC1(C)CC[C@]2(CN3C(=O)CCN3C(=O)OC(C)(C)C)CC[C@]3(C)[C@H](C(=O)C=C4[C@@]5(C)C=C(C#N)C(=O)C(C)(C)[C@@H]5CC[C@]43C)[C@@H]2C1 [Compound T50] | 1.17 ± 0.18^d fold | 4.82 ± 1.3 | – | – | – | – | –
22 | CN1CC(=O)N([C@]23CCC(C)(C)C[C@H]2[C@H]2C(=O)C=C4[C@@]5(C)C=C(C#N)C(=O)C(C)(C)[C@@H]5CC[C@@]4(C)[C@]2(C)CC3)CC1=O [Compound T54] | 16.18 ± 3.50^e fold | 64.6 ± 19.7 | – | – | – | – | –
23 | CC1(C)CC[C@]2(N(NC(=O)OC(C)(C)C)C(=O)OC(C)(C)C)CC[C@]3(C)[C@H](C(=O)C=C4[C@@]5(C)C=C(C#N)C(=O)C(C)(C)[C@@H]5CC[C@]43C)[C@@H]2C1 [Compound T55] | 17.42 ± 0.43^e fold | 68.9 ± 10 | – | – | – | – | –
24 | CC1(C)CC[C@]2(n3nccc3C(F)(F)F)CC[C@]3(C)[C@H](C(=O)C=C4[C@@]5(C)C=C(C#N)C(=O)C(C)(C)[C@@H]5CC[C@]43C)[C@@H]2C1 [Compound T59] | 12.08 ± 2.93^d fold | 49.5 ± 13.8 | – | – | – | – | –
25 | CC1(C)CC[C@]2(n3ccc(C(F)(F)F)n3)CC[C@]3(C)[C@H](C(=O)C=C4[C@@]5(C)C=C(C#N)C(=O)C(C)(C)[C@@H]5CC[C@]43C)[C@@H]2C1 [Compound T60] | 11.32 ± 1.49^e fold | 45.1 ± 10.6 | – | – | – | – | –
26 | CN1CCN([C@]23CCC(C)(C)C[C@H]2[C@H]2C(=O)C=C4[C@@]5(C)C=C(C#N)C(=O)C(C)(C)[C@@H]5CC[C@@]4(C)[C@]2(C)CC3)CC1=O [Compound T61] | 3.18 ± 0.67^d fold | 13.2 ± 3.78 | – | – | – | – | –
27 | CC1(C)CC[C@]2(CN3CC(O)C3)CC[C@]3(C)C(O)(C(=O)C=C4[C@@]5(C)C=C(C#N)C(=O)C(C)(C)[C@@H]5CC[C@]43C)[C@@H]2C1 (stereo partly shown) [Compound T64] | 1.64 ± 0.16^e fold | 3.82 ± 1.76 | – | – | – | – | –
28 | CC1(C)CC[C@]2(NC(=O)C3CC3)CC[C@]3(C)[C@H](C(=O)C=C4[C@@]5(C)C=C(C#N)C(=O)C(C)(C)[C@@H]5CC[C@]43C)[C@@H]2C1 [Compound T68] | 6.51 ± 1.38^i fold | – | – | – | 11.4 ± 5.17 | – | –
